Test results as given in patent US20090155228A1, “COMPOUNDS, KITS AND METHODS FOR CONFERRING CYTOPROTECTION” (priority 2006, published 2009).
Where “and” joins values, the source holds several entries; their conditions need not be identical. Equal values may be shown once.

What was measured:
ABCG2 [1] = experiment: RT-Q-PCR ABCG2 transcript level in monocyte-derived DCs; assay type: cell-based, human
Experimental: (§1) Cell culture and ligand treatment—Monocytes (98% CD14+) were obtained from buffy coats by Ficoll gradient centrifugation and immunomagnetic cell separation using anti-CD14-conjugated microbeads (VarioMACS; Miltenyi Biotec). […] Cells were cultured for 5 or 6 days (unless otherwise indicated) and the IL-4 and GM-CSF addition was repeated at day 3. Ligands or vehicle control (50% DMSO/ethanol) were added to the cell culture from the first day on. MonoMac-6 (MM6) cells were a kind gift of E. Duda (Biological Research Center, Szeged, Hungary).

FABP4 [2] = experiment: RT-Q-PCR FABP4 transcript level in monocyte-derived DCs; assay type: cell-based, human
Experimental: (§2) Cell culture and ligand treatment—Monocytes (98% CD14+) were obtained from buffy coats by Ficoll gradient centrifugation and immunomagnetic cell separation using anti-CD14-conjugated microbeads (VarioMACS; Miltenyi Biotec). DCs were prepared as described previously (Szatmari, I. et al. (2004) Immunity 21, 95-106). In brief, monocytes were resuspended into six-well culture dishes at a density of 1.5×10^6 cells/ml and cultured in RPMI 1640 supplemented with 10% FBS (Invitrogen), containing 800 U/ml GM-CSF (Leucomax) and 500 U/ml IL-4 (Peprotech). Cells were cultured for 5 or 6 days (unless otherwise indicated) and the IL-4 and GM-CSF addition was repeated at day 3. Ligands or vehicle control (50% DMSO/ethanol) were added to the cell culture from the first day on. MonoMac-6 (MM6) cells were a kind gift of E. Duda (Biological Research Center, Szeged, Hungary). These cells were cultured in RPMI 1640 supplemented with 10% FBS.

[3] = patients treated with 4 mg RSG; cited from earlier work
PPARg = experiment: RT-Q-PCR PPARg transcript in MM6 cells after RNA interference; assay type: cell-based; conditions: MM6 cells electroporated with 1.5 μg siRNA
Experimental: (§3) RNA interference—For siRNA delivery the AMAXA's Nucleofection technology (AMAXA) was applied. MM6 cells (1×10^6) were harvested and electroporated with 1.5 μg siRNA using the Cell line nucleofector kit V (AMAXA), program v-001. Applicants used a previously described PPARg specific siRNA sequence (Kelly, D. et al. (2004) Nat Immunol 5, 104-112): […]-d(TT) (SEQ ID NO. 10). As a negative control, Silencer Negative Control 1 siRNA (Ambion) was used.
as §2

FABP4 [4] = experiment: RT-Q-PCR FABP4 transcript in MM6 cells; assay type: cell-based; conditions: after RSG alone or with LG268, 24 h
Experimental: as §3, §2

ABCG2 [5] = experiment: RT-Q-PCR ABCG2 transcript in MM6 cells; assay type: cell-based; conditions: after RSG alone or with LG268, 24 h
Experimental: as §3, §2

PPARd = experiment: RT-Q-PCR PPARd transcript in MM6 cells after RNA interference; assay type: cell-based; conditions: MM6 cells electroporated with 1.5 μg siRNA
Experimental: as §3, §2

ABCG2 [6] = experiment: Mitoxantrone uptake in DCs by FACS; assay type: cell-based, human; conditions: 30 min
Experimental: Measurement of mitoxantrone uptake by FACS analyses—Cells were resuspended in phenol red free HPMI medium containing the desired fluorescent compound (20 μM mitoxantrone) with or without KO143 (1 μM) and incubated at 37° C. for 30 min, Thereafter the cells were washed with cold HPMI and subjected to flow cytometric analyses. The cells were assessed for fluorescence intensity with a FACSCalibur cytometer (Beckton Dickinson).

DCs = conditions: MTT
Experimental: Cytotoxicity assay—Cytotoxicity assays were carried out using the MTT assay. Briefly, cells were plated in 96-well plates at a density of 10^5 cells per well. Mitoxantrone at various concentrations with or without KO143 was added to DCs and cells were incubated at 37° C. for 48 h. After incubation, cytotoxicity was assessed by using the MTT assay.

CD86 = experiment: FACS cell surface expression of CD86 on DCs; assay type: cell-based, human; conditions: PPARg activated DCs (2.5 μM RSG) with 1 μM KO143
Experimental: (§4) FACS analysis—Cell staining was performed using FITC- or PE-conjugated monoclonal antibodies: Labeled antibodies for flow cytometry included anti-CD1a-PE, CD1d-PE, CD80-PE, CD86-PE and isotype-matched controls (BD PharMingen). For the ABCG2 detection cells were fixed with 1% paraformaldehyde for 5 min, then incubated with unlabeled anti-ABCG2 (5D3) or isotype-matched control (R and D system) antibody for 30 min at 37° C., followed by staining with FITC-labeled anti-mouse antibody (BD PharMingen). The fluorescence of labeled cells was measured by using a FACSCalibur flow cytometer (Beckton Dickinson).

CD1a [7] = experiment: RT-Q-PCR CD1a transcript level in DCs; assay type: cell-based, human; conditions: PPARg activated DCs with 1 μM KO143; relative to cyclophilin A
Experimental: as §2

CD1a [8] = experiment: FACS cell surface expression of CD1a on DCs; assay type: cell-based, human; conditions: PPARg activated DCs (2.5 μM RSG) with 1 μM KO143
Experimental: as §4

CD80 = experiment: FACS cell surface expression of CD80 on DCs; assay type: cell-based, human; conditions: PPARg activated DCs (2.5 μM RSG) with 1 μM KO143
Experimental: as §4

CD1d = experiment: FACS cell surface expression of CD1d on DCs; assay type: cell-based, human; conditions: PPARg activated DCs (2.5 μM RSG) with 1 μM KO143
Experimental: as §4

ABCG2 [9] = experiment: Hoechst 33342 retention in DCs by CLSM and FACS; assay type: cell-based, human; conditions: stimulated DCs, 1 μM KO143
Experimental: Measurement of Hoechst retention by CLSM and FACS—DCs were plated on Lab-Tek coverslip chambers. Cells were incubated with 0.5 μg/ml Hoechst 33342 for 1 h at 37° C. with or without KO143 (1 μM), then subjected to microscopic analysis. Hoechst fluorescence was measured on a Zeiss LSM 510 confocal microscope with a Plan-Apochromat 60× (NA 1.4) oil immersion objective using maximal detection pinhole diameter (1 mm) to get signal from the whole depth of the nucleus. Hoechst was excited by the 351 and 364 nm lines of an Ar ion laser, emission was measured through a 385-to-470 nm bandpass filter.
Hoechst content was also measured on a Becton Dickinson FACSVantage flow cytometer. Hoechst fluorescence was excited by the 351 and 364 nm lines and the blue and red Hoechst signals were detected through 402-to-446 nm and >650 nm filters, respectively.

ABCG2 [10] = experiment: Flow cytometry of ABCG2 cell surface expression in DCs (5D3 antibody); assay type: cell-based, human; conditions: DCs treated with RSG plus GW9662
Experimental: as §4

ABCA1 = experiment: RT-Q-PCR ABCA1 mRNA level in DCs; assay type: cell-based, human; conditions: DCs cultured 24 h, 1 μM RSG or 1 μM T0901317
Experimental: as §1

ABCG1 = experiment: RT-Q-PCR ABCG1 mRNA level in DCs; assay type: cell-based, human; conditions: DCs cultured 24 h, 1 μM RSG or 1 μM T0901317
Experimental: as §1

[11] = biological target: T1, PPARgamma:RXRalpha heterodimer (Mus musculus (PPARg); Homo sapiens …, UniProt P37238;P19793 P37238:1-505,P19793:1-462); experiment: competition; cold mutant at x10 and x20 does not compete; conditions: tags: T7 Quick TNT, full-length
[12] = biological target: T1, PPARgamma:RXRalpha heterodimer; experiment: EMSA; supershift with both antibodies; some aspecific binding also in blank; conditions: tags: T7 Quick TNT, full-length; label: 32P
[13] = biological target: T1, PPARgamma:RXRalpha heterodimer; experiment: EMSA; supershift with anti-RXRa and anti-PPARg; competed by cold WT; conditions: tags: T7 Quick TNT, full-length; label: 32P
[14] = ligand treated monocyte-derived DCs: 2.5 μM RSG, 100 nM GW347845X, 1 μM troglitazone, relative to 36B4

Q: Which “ABCG2 mRNA expression” value (ABCG2 [1]; [14]) does the source give for COC(=O)c1ccccc1N[C@@H](Cc1ccc(OCCc2nc(-c3ccccc3)oc2C)cc1)C(=O)O [GW347845X] here?
A: Its value is “induced”.

Q: And the “FABP4 mRNA expression” value (FABP4 [2]; [14])?
A: Its value is “induced”.

Q: For CN(CCOc1ccc(CC2SC(=O)NC2=O)cc1)c1ccccn1 (centres unmarked) [rosiglitazone], which Plasma concentration [3] is on record?
A: The Plasma concentration was 50-350 ng/ml and 100-1000 nM.

Q: With “GCCCTTCACTACTGTTGAC-d(TT) (sense GCCCTTCACTACTGTTGACTT; 3' dTdT overhang, further chemistry not given here) [PPARg-specific siRNA]” as the molecule, how does the “Expression of endogenous PPARg” value (PPARg) read?
A: The value was “effectively inhibited”.

Q: What about the “Induction of FABP4 in siRNA treated MM6 cells” value (FABP4 [4]) of the same molecule?
A: Its value is “impaired induction”.

Q: What about the “Induction of ABCG2 in siRNA treated MM6 cells” value (ABCG2 [5]) of the same molecule?
A: Its value is “impaired induction”.

Q: What about the “Expression of PPARd” value (PPARd) of the same molecule?
A: Its value is “did not interfere”.

Q: What does the source list for O=C1c2c(O)ccc(O)c2C(=O)c2c(NCCNCCO)ccc(NCCNCCO)c21 [mitoxantrone]?
A: Mitoxantrone accumulation in control DCs (ABCG2 [6]; 20 μM mitoxantrone): rapid; Cell viability of control DCs (DCs; mitoxantrone 1.25 or 2.5 μg/ml, 48 h): induced cell death

Q: For COc1ccc2c3c([nH]c2c1)[C@H](CC(C)C)N1C(=O)[C@H](CCC(=O)OC(C)(C)C)NC(=O)[C@@H]1C3 [KO143], which “Cell surface expression of CD86 with ABCG2 inhibitor” value (CD86) is on record?
A: Its value is “did not change”.

Q: What about the “CD1a mRNA expression with ABCG2 inhibitor” value (CD1a [7]) of the same molecule?
A: The value was “reduced”.

Q: What about the “Cell surface expression of CD1a with ABCG2 inhibitor” value (CD1a [8]) of the same molecule?
A: The value was “slightly decreased”.

Q: And the “Cell surface expression of CD80 with ABCG2 inhibitor” value (CD80)?
A: Its value is “did not change”.

Q: And the “Cell surface expression of CD1d with ABCG2 inhibitor” value (CD1d)?
A: The value was “did not change”.

Q: And the “Mitoxantrone extrusion by ABCG2 in activated cells” value (ABCG2 [6]; 1 μM KO143, 20 μM mitoxantrone)?
A: The value was “fully inhibited”.

Q: What about the “Effect of ABCG2 inhibitor on reduced Hoechst dye accumulation” value (ABCG2 [9]) of the same molecule?
A: Its value is “abolished the effect of the PPARg ligand treatment”.

Q: What about the “Transcript level of FABP4 with ABCG2 inhibitor” value (FABP4 [2]; PPARg activated DCs with 1 μM KO143, relative to cyclophilin A) of the same molecule?
A: Its value is “did not change”.

Q: And the “Effect of ABCG2 inhibitor on protection against mitoxantrone” value (DCs; RSG treated DCs with KO143, 48 h)?
A: The value was “removed this protective effect”.

Q: For O=C(Nc1ccccc1)c1cc([N+](=O)[O-])ccc1Cl [GW9662], which “Effect of PPARg antagonist on RSG induction of ABCG2 mRNA” value (ABCG2 [1]; DCs, 2.5 μM RSG with 5 μM GW9662) is on record?
A: The value was “abolished the induction of ABCG2”.

Q: What about the “Cell surface expression of ABCG2 protein with PPARg antagonist” value (ABCG2 [10]) of the same molecule?
A: Its value is “reduced”.

Q: Which results are given for O=S(=O)(c1ccccc1)N(CC(F)(F)F)c1ccc(C(O)(C(F)(F)F)C(F)(F)F)cc1 [T0901317]?
A: ABCG2 mRNA expression with LXR specific agonist (ABCG2 [1]; DCs cultured 24 h, 1 μM T0901317): did not affect; ABCA1 mRNA expression (ABCA1): profound upregulation; ABCG1 mRNA expression (ABCG1): profound upregulation

B1: ABCG2 element B mut (dsDNA)
DNA 1: GGGCACATTGAGAAAGGTTAAGTGA
DNA 2: TCACTTAACCTTTCTCAATGTGCCC
Q: Does B1 bind [11]?
A: Result: no binding

B2: ABCG2 element C mut (dsDNA)
DNA 1: GGTCATTTCGAGAGATGTTAGATGA
DNA 2: TCATCTAACATCTCTCGAAATGACC
Q: Does B2 bind [11]?
A: Result: no binding

B3: ABCG2 element C WT (dsDNA)
DNA 1: GGTCATTAGGTCAGATGTTAGATGA
DNA 2: TCATCTAACATCTGACCTAATGACC
Q: Does B3 bind [12]?
A: Result: binds

B4: ABCG2 element B WT (dsDNA)
DNA 1: GGGCACAAGGTTAAAGGTTAAGTGA
DNA 2: TCACTTAACCTTTAACCTTGTGCCC
Q: Does B4 bind [12]?
A: Result: binds

B5: ABCG2 element A mut (dsDNA)
DNA 1: GGGGTGGGCGAGAGAGGGCAATGGC
DNA 2: GCCATTGCCCTCTCTCGCCCACCCC
Q: Does B5 bind [11]?
A: Result: no binding

B6: ABCG2 element A WT (dsDNA)
DNA 1: GGGGTGGAGGGCAGAGGGCAATGGC
DNA 2: GCCATTGCCCTCTGCCCTCCACCCC
Q: Does B6 bind [13]?
A: Result: binds
